Tests used:
[1] = tested on: enzymic conversion of the endoperoxides (PGG2 and PGH2) to thromboxane A2; conditions: platelet microsomes; Moncada et al., Prostaglandins, 13/4, 611-618, 1977; cited from earlier work
[2] = tested on: PGE, PGF and PGD (anti-aggregatory-prostaglandin generating enzymes); assay: selectivity: amount of PGE, PGF and PGD produced by homogenised horse platelets; assay type: biochemical; parameters: key: O indicates no selectivity; + low selectivity; ++ medium selectivity; conditions: the greater the selectivity, the more anti-aggregating prostaglandins are produced
Experimental: (§1) Horse platelets were prepared from whole horse blood by differential centrifugation. Approximately 10^6 platelets were homogenised in 1 ml 100 mM Tris buffer pH 7.4. Various concentrations of active compound were added and the reaction sets incubated for 5 minutes at ambient temperature. To each tube was added 20 nM of arachidonic acid containing 10^6 DPM of labelled arachidonic acid and the tubes incubated for 3 minutes at 37° C. in a shaking water bath. After incubation the radioactive products were extracted from the acidified aqueous phase with ethyl acetate and after concentration resolved by thin layer chromotography on silica gel with chloroform/methanol/acetic acid/water (90:8:1:0.8) as a developing solvent. The amount of thromboxane produced was measured by scraping the radioactive zone corresponding to thromboxane B2 and estimating the radioactivity in a liquid scintillation counter.
The selectivity of the active compounds was measured in a similar manner to that described above and the amount of PGE, PGF and PGD produced was determined. The greater the selectivity, the more of the anti-aggregating prostaglandins are produced.
The ED50 and Selectivity results are shown in Table A in which O indicates no selectivity; + low selectivity and ++ medium selectivity.

TXA2 synthetase = molecular target: T1, TXA2 synthetase (Equus caballus, UniProt A0A9L0T8T9); assay: thromboxane production from labelled arachidonic acid by homogenised horse platelets (concentration to reduce the enzyme activity by 50%); assay type: biochemical; conditions: horse platelet homogenate, pH 7.4, 5 min preincubation, 3 min at 37° C. with arachidonic acid, read-out: ED50 (the source's name) (converted)
T1 construct: arachidonic acid substrate, thromboxane B2 measured by radio-TLC
T1 sequence (A0A9L0T8T9 2-534): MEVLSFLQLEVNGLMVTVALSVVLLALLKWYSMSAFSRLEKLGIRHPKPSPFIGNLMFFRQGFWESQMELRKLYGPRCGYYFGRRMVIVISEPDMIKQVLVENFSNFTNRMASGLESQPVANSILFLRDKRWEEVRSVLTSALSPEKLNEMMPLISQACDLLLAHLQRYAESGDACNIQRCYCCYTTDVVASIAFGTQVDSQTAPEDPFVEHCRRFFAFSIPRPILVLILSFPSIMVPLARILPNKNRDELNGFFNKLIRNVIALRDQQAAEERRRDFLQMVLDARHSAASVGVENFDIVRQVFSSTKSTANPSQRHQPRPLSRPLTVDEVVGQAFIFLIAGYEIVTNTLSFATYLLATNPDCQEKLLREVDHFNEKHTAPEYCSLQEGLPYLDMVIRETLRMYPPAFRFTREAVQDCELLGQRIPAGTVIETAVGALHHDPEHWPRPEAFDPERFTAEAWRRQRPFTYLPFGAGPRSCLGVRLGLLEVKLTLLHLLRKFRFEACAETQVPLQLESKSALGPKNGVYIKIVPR
T1 sequence (F7BQR7 24-599 partner): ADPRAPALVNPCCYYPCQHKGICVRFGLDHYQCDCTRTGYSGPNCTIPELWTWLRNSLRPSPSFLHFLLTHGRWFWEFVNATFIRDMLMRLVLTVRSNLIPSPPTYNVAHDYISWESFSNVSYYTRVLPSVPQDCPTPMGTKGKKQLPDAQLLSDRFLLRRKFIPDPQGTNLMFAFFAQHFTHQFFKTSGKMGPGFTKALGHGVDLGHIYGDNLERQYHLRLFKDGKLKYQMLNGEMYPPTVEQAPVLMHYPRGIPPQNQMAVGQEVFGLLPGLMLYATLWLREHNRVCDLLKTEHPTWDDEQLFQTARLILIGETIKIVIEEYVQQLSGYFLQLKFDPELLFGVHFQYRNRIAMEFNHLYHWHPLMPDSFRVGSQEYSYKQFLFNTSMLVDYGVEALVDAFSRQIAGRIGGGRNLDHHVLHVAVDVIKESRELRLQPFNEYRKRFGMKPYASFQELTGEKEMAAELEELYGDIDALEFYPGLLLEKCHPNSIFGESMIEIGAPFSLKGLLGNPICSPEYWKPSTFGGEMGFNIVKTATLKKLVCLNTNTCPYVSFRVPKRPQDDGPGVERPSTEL
Experimental: as §1
The concentration of active compound to reduce the enzyme activity by 50% (ED50) was established.

platelet aggregation = assay: inhibition of platelet aggregation in vivo
platelet clumps = assay: disaggregation of platelet clumps
serum cholesterol = conditions: U.K. Pat. No. 1 364 312; Biochem. Pharmacol. 24, 1902-1903, 1975; cited from earlier work

SMILES | Selectivity [2] | IC50 (TXA2 synthetase) | other results
c1c[nH]cn1 [Imidazole] |  |  | inhibition of the enzymic conversion of PGG2 and PGH2 to thromboxane A2 [1]: some degree of inhibition
Clc1cccc(Cl)c1C=CCn1ccnc1 [1-[3-(2,6-dichlorophenyl)prop-2-enyl]imidazole] | + | 3.95 µM | 
Cn1ccnc1 [1-methylimidazole] |  |  | inhibition of the enzymic conversion of PGG2 and PGH2 to thromboxane A2 [1]: some degree of inhibition
Cc1ccc(Cn2ccnc2)cc1C [1-(3,4-Dimethylbenzyl)imidazole, 1-(3,4-dimethylbenzyl)imidazole] | ++ | 32.2 µM | inhibiting platelet aggregation in vivo (platelet aggregation): capable of inhibiting platelet aggregation in vivo; disaggregating platelet clumps (platelet clumps): capable of disaggregating platelet clumps
Cc1cc(C)c(Cn2ccnc2)c(C)c1 [1-(2,4,6-Trimethylbenzyl)imidazole, 1-(2,4,6-trimethylbenzyl)imidazole] | ++ | 17 µM | 
CCCCCCCCCCCCn1ccnc1 [1-n-dodecylimidazole] |  |  | lowering serum cholesterol levels (serum cholesterol): capable of lowering serum cholesterol levels
Clc1ccc(C=CCn2ccnc2)c(Cl)c1 [1-[3-(2,4-dichlorophenyl)prop-2-enyl]imidazole] | + | 16.2 µM | 

From patent US4405634A, “Imidazole derivatives for treating myocardial infarction” (Burroughs Wellcome Co., priority 1977, dated 1983)
